Results taken from US20190151289A1, “Identification of Small Molecule Inhibitors of Jumonji AT-Rich Interactive Domain 1A (JARID1A) Histone Demethylase” (YALE UNIVERSITY, priority 2016, published 2019).
Like-named read-outs stand apart in the source and are kept apart here.

Legend:
full-length FLAG-KDM5A = biological target: T1, full-length FLAG-KDM5A (Homo sapiens, UniProt P29375); assay: AlphaScreen KDM5A demethylation assay (bio-H3K4me3 peptide); type: biochemical; details: for hit in KDM5A inhibitor screen: compounds at 20 μM, hit threshold ~30% inhibition
T1 construct: Sf21 insect cells were infected with baculovirus to express full-length FLAG-KDM5A; made in house; host or cells: Sf21 insect cells (baculovirus)
Experimental: (§1) Histone demethylase assays were performed using previously described methods (Sayegh et al., 2013, J. Biol. Chem. 9408-9417), with the exception of all enzyme reactions containing 125 μM α-KG. Enzymes were used at the following approximate concentrations in validation experiments, chosen based on their activity in AlphaScreen assays: 19 nM FLAG-KDM5A, 15 nM FLAG-KDM5B, 6 nM FLAG-KDM5C, 29 nM His-FLAG-KDM6A, and 16 nM FLAG-KDM6B. 24 nM FLAG-KDM5A was used for Km determination experiments. Reactions were carried out for 1 hour, or were stopped by addition of 30 mM EDTA every 5 minutes for determining enzyme kinetics. Km values were calculated using the Michaelis-Menten non-linear regression analysis on GraphPad Prism 6.0 software. The concentration of DMSO in demethylation reactions was 0.05%. For reactions with catalase, catalase (Sigma C30) or an equal volume of dilution buffer was added to the peptide-containing buffer before addition of the demethylase. The final concentration of catalase in the reactions was 0.01 mg/ml.
(§2) The AlphaScreen general IgG (protein A) detection kit from PerkinElmer Life Sciences was used as described previously (Sayegh et al., 2013, J. Biol. Chem. 9408-9417). The luminescence emission was recorded at 570 nm using the AlphaScreen optic module on a Pherastar (BMG Labtech) or Envision (PerkinElmer Life Sciences) microplate reader.
8,861 compounds from the ChemBridge MW-Set, ChemBridge DIVERSet, MicroSource Gen-Plus, MicroSource Pure Natural Products, NIH Clinical Collection, and Enzo Epigenetics libraries were screened for inhibition of FLAG-KDM5A demethylase activity. Compounds were dissolved in DMSO and added at 20 μM to 384-well white plates (Corning 3574) containing 64 nM bio-H3K4me3 peptide in demethylase buffer prior to addition of 13 nM FLAG-KDM5A. Hits were selected at a threshold of three standard deviations (˜30% inhibition). A counter-screen was performed with the hits to eliminate any non-specific compounds. For this, 20 μM compounds were added to 64 nM bio-H3K4me2 peptide in demethylase buffer with no enzyme. Any hits that interfered with the positive signal detection were eliminated. Dose-response curves were performed on selected hits using 0.1-11 μM of compound. Further validation of top hits was performed using 5 μM of each compound or a dose-response curve using 0.05-50 μM of the compound.
Fresh compounds were ordered to confirm identity. IC50 curves were generated for YUKA1 and YUKA2 using 0.05-50 μM compound in 1 hour reactions. IC50 values were calculated by log transformation and non-linear regression log (inhibitor) versus response (three parameters) using Graphpad Prism 6.0 software. Percent activity of KDM5A was calculated for each data point by subtracting the background (average H3K4me3 signal) and dividing by the average signal for the DMSO controls. α-KG competition tests were performed using 150 nM H3K4me3 peptide and 50 μM Fe(II).
AlphaScreen technology (Perkin Elmer) was utilized to perform a screen for small molecule inhibitors of KDM5A. The assay was comprised of two steps, a demethylation reaction followed by detection of the product. A biotinylated H3K4me3 peptide was used as substrate in the demethylation reaction with KDM5A in the presence or absence of small molecule inhibitors. The presence of peptide product (H3K4me1/2) was detected using a product-specific antibody and beads. For this, acceptor beads coated in protein A bound to the antibody, which recognized the peptide product. Donor beads coated in streptavidin bound biotin on the peptide substrate. […]

KDM5C = biological target: T2, KDM5C (Homo sapiens, UniProt P41229); assay: AlphaScreen KDM5C demethylation assay; type: biochemical
T2 construct: FLAG; made in house
Experimental: as §1, §2

[1] = tested on: H3K4 methylation in HeLa cells; assay: Western blot of global H3K4 methylation, HeLa; type: cell-based, human; details: HeLa and MCF7 cell lines, western blot
Experimental: Sf21 insect cells were cultured at 27° C. in Grace's medium (Gibco) with 10% fetal bovine serum (FBS) and 1% penicillin/streptomycin. HeLa cells were cultured in DMEM (Gibco) with 10% FBS and 1% penicillin/streptomycin. BT474, MCF7, MDA-MB-231, PC9 and ZR-75-1 cells were cultured in RPMI 1640 (Gibco) with 10% FBS and 1% penicillin/streptomycin. MCF10A cells were cultured as using previously described methods (Sayegh et al., 2013, J. Biol. Chem. 9408-9417). All human cells were cultured at 37° C. and 5% carbon dioxide. HeLa and MCF7 cell lines were authenticated using short tandem repeat profiling performed at the DNA Analysis Facility on Science Hill at Yale University. All other human cell lines used were within 10 passages after being obtained from the American Type Culture Collection.
Cells were lysed using previously described methods (Lin et al., 2011, Proc. Natl. Acad. Sci. U.S.A. 108:13379-13386). Histones were separated by centrifugation, resuspended in Laemmeli buffer, and sonicated. Protein concentration of cell lysates was measured by Bradford assay. Samples in Laemmeli buffer were boiled 10 minutes at 95° C. and loaded onto 7% (whole cell lysates) or 18% (histones) SDS-PAGE gels. Membranes were blocked in 4% non-fat milk in Tris-buffered saline with 0.05% Tween (TBS-T) and incubated with primary antibodies in the same buffer or 5% bovine serum albumin in TBS-T overnight at 4° C. Membranes were incubated with secondary anti-rabbit or anti-mouse antibodies for one hour at room temperature. Blots were visualized by Thermo Scientific Pierce ECL Western Blotting Substrate (32106) or EMD Millipore Immobilon Western Chemiluminescent HRP Substrate (WBKLS0100) on film. Signal was quantified using ImageJ software.

[2] = inhibitors found by high throughput screening, read-out: KDM5A IC50

T1 sequence (P29375 whole entry): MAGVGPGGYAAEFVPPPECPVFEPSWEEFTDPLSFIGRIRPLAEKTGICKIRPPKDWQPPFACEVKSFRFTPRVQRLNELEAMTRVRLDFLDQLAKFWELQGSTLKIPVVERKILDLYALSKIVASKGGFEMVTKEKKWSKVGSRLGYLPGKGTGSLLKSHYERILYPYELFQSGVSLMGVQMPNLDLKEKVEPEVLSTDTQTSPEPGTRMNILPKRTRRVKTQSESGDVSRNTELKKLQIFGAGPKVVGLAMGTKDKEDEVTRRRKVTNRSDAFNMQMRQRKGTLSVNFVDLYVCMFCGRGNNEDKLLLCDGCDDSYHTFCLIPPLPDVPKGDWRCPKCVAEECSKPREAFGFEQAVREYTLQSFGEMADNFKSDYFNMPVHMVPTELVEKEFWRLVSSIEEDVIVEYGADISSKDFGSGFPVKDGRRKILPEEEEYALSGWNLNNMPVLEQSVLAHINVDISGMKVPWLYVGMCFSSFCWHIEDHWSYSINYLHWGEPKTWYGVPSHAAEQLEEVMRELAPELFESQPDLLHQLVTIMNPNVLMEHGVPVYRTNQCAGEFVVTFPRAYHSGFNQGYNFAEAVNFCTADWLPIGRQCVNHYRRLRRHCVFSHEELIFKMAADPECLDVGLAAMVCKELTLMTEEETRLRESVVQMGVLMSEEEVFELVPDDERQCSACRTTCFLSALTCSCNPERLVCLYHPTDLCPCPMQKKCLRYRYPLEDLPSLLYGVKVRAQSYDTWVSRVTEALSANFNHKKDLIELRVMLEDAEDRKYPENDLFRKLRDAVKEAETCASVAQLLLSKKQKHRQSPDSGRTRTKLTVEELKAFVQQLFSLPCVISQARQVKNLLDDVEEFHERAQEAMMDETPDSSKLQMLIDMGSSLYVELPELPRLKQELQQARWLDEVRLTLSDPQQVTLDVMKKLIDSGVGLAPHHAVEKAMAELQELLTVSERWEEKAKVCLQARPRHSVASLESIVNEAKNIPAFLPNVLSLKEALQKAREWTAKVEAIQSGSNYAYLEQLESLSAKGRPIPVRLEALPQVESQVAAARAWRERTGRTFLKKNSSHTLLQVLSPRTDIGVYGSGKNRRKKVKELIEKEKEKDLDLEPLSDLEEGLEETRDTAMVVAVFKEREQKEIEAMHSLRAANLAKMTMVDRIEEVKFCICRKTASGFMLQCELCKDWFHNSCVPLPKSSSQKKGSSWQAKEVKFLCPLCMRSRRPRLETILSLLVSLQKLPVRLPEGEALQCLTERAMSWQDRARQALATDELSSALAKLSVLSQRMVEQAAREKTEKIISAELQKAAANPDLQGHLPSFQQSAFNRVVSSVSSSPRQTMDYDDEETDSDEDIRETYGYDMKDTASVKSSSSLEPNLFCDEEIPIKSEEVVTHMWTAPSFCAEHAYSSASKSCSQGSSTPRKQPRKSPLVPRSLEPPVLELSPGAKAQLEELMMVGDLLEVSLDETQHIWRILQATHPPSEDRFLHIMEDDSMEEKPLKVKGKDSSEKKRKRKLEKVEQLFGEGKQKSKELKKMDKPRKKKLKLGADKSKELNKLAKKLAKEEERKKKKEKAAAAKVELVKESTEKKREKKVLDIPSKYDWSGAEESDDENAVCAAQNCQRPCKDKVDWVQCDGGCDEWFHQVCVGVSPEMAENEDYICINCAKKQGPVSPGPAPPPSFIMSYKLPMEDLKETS
T2 sequence (P41229 whole entry): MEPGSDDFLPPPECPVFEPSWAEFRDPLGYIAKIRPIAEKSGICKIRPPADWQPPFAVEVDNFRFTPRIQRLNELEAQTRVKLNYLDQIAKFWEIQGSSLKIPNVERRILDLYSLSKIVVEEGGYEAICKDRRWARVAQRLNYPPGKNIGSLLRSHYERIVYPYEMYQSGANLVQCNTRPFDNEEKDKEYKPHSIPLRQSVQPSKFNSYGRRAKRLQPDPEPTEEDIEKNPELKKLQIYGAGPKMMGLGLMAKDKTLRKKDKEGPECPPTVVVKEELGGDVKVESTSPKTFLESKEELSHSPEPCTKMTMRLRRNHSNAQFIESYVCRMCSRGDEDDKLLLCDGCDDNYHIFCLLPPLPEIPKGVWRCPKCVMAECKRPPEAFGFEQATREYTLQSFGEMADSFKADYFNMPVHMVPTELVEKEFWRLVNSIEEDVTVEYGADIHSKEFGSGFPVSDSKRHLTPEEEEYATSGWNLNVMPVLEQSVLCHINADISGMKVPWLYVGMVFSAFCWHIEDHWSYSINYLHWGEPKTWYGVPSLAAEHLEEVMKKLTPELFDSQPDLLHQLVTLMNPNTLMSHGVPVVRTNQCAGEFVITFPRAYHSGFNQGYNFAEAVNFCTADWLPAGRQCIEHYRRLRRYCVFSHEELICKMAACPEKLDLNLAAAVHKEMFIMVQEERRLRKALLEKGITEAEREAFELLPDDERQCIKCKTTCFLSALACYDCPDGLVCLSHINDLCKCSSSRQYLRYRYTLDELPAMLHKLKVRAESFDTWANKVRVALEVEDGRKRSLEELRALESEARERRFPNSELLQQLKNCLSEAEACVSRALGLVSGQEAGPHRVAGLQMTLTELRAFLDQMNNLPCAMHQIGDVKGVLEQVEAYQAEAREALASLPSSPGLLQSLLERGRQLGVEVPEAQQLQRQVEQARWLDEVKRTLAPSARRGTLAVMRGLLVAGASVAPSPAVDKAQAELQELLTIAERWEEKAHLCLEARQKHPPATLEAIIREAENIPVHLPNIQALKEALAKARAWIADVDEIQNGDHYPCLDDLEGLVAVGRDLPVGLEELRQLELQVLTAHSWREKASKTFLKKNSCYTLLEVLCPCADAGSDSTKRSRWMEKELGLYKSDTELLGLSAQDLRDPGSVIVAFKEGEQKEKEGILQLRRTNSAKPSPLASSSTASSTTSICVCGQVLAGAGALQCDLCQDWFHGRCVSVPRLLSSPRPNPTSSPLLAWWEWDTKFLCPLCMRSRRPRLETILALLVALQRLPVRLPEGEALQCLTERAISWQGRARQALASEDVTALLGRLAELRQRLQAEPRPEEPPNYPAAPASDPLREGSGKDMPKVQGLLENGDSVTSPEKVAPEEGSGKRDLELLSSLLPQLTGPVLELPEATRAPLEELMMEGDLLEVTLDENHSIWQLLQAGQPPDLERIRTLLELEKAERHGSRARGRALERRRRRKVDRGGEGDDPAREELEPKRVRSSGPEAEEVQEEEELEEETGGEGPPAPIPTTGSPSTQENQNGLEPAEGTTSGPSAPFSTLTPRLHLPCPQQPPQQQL

SMILES	hit in KDM5A inhibitor screen (full-length FLAG-KDM5A)	IC50 (full-length FLAG-KDM5A; [2])	other results
O=C(O)c1ccnc(C(=O)O)c1 [2,4-PDCA, 2,4-pyridinedicarboxylic acid, reference compound]	among the active hits in the screen		
Cc1ccc(-n2sc3ccccc3c2=O)cc1 [PBIT, 2-4(4-methylphenyl)-1,2-benzisothiazol-3(2H)-one, reference compound]	among the active hits in the screen		
COc1cccc(Cc2nnc(S)n2-c2ccc(Cl)cc2)c1 [YU017175, 4-(4-chlorophenyl)-5-(3-methoxybenzyl)-4H-1,2,4-triazole-3-thiol]		57 nM	
COc1cccc(Cc2nnc(S)n2Cc2ccco2)c1 [YU017176, 4-(furan-2-ylmethyl)-5-(3-methoxybenzyl)-4H-1,2,4-triazole-3-thiol]		1760 nM	
C=CCn1c(S)nnc1-c1cccnc1 [YU125526, 4-allyl-5-(pyridin-3-yl)-4H-1,2,4-triazole-3-thiol]		197 nM	
CCn1c(S)nnc1CNC(=O)c1cccc(C)c1 [YU126648, N-((4-ethyl-5-mercapto-4H-1,2,4-triazol-3-yl)methyl)-3-methylbenzamide]		159 nM	
Cc1cccc(-n2c(C)nnc2S)c1 [YU128402, 5-methyl-4-(m-tolyl)-4H-1,2,4-triazole-3-thiol]		79 nM	
CCCCSCCc1nnc(S)n1-c1ccccc1 [YU149596, 5-(2-(butylthio)ethyl)-4-phenyl-4H-1,2,4-triazole-3-thiol]		169 nM	
C=CCn1c(S)nnc1CNC(=O)c1cccc(C)c1 [YUKA2, N-[(4-allyl-5-mercapto-4H-1,2,4-triazol-3-yl)methyl]-3-methylbenzamide]		2660 nM	mode of KDM5A inhibition with respect to Fe(II) (full-length FLAG-KDM5A): uncompetitive with respect to Fe(II); KDM5A enzyme inhibition at low Fe(II) (full-length FLAG-KDM5A; 5 μM Fe(II)): too weak to generate robust IC50 curves; effect of catalase on inhibitory potency against KDM5A (full-length FLAG-KDM5A; 0.01 mg/ml catalase): did not affect the inhibitory potency; IC50 (full-length FLAG-KDM5A; 0.05-50 μM compound, 1 hour reactions, read-out: average in vitro IC50 against KDM5A): 1320 nM; change of KDM5A IC50 with α-KG concentration (full-length FLAG-KDM5A; 16-fold range of α-KG, 150 nM H3K4me3 peptide, 50 μM Fe(II)): did not change significantly; fold less active against KDM5C (vs KDM5A) (KDM5C): ~5 fold; cell activity by global H3K4 methylation changes [1]: but not YUKA2, was cell-active
O=C(O)/C=C/c1ccc(O)c(O)c1 [caffeic acid, reference compound]	among the active hits in the screen		
C[C@@](Cc1ccc(O)c(O)c1)(NN)C(=O)O [carbidopa, reference compound]	among the active hits in the screen		
N[C@@H](Cc1ccc(O)c(O)c1)C(=O)O [levodopa, reference compound]	among the active hits in the screen		
